Assay results reported in patent US4216214A, “4-Tert. butyl-3'-chlorodiphenylamine derivatives, their preparation and their application as anti-histaminic drugs” (PRODESIN (Productos Esteve Internacional S.A.), priority 1977, dated 1980).
Several values for one entry are separate records, joined by “and”; a condition that tells them apart may be missing. Equal values may be shown once.

Key:
[1] = system: "H2" histamine receptor sites; test: Gastric anti-secretory action, secretion stimulated by histamine (Ghosh and Schild method); type: in vivo, Sprague-Dawley rats; details: intravenous dose inhibiting by 50% the gastric secretion caused by histamine 2.5 μmoles/kg i.v., rats
Method: (§1) Sprague-Dawley rats having a body weight of from 300 to 350 g are used for studying the antagonistic action of the "H2 " histamine receptor sites by the method described by Ghosh and Schild (1958). The gastric secretion is stimulated by intravenous injection of constant doses of histamine (2.5 μmoles/kg) or of carbachol (5 nmoles /kg). The gastric anti-secretory action is then determined by the intravenous dose (in μmole/kg) of derivative which inhibits by 50% the effect caused by the histamine or carbachol (DI-50).

[2] = system: gastric secretion stimulated by carbachol; test: Gastric anti-secretory action, secretion stimulated by carbachol (Ghosh and Schild method); type: in vivo, Sprague-Dawley rats; details: Rattus norvegicus; intravenous dose inhibiting by 50% the gastric secretion caused by carbachol 5 nmoles/kg i.v., rats; read-out: DI-50 with carbachol
Method: as §1

[3] = system: Ileum of Guinea Pig (agonist Histamine); test: Test on isolated organ: contraction by histamine; type: cell-based; details: Cavia porcellus, agonist Histamine 0.05 μ, read-out: Cl-50 of products, Histamine
Method: (§2) During this test, the products are added to the bath in an aqueous solution. The interaction of the various products is determined with different […]: Histamine, acetyl choline, serotonine and norepinephrine. The […] are employed in constant doses to produce contractions in the various biological reactants described below in table III.
(§3) The micromolar concentration which inhibits 50% of the response produced by the constant concentration of each agonist (Cl-50) is determined for each derivative.

[4] = system: Ileum of Guinea Pig (agonist Acetyl Choline); test: Test on isolated organ: contraction by acetyl choline; type: cell-based; details: Cavia porcellus, agonist Acetyl Choline 0.05 μ, read-out: Cl-50 of products, Acetyl Choline
Method: as §2, §3

[5] = system: Uterus of Rat (agonist Seratonine); test: Test on isolated organ: contraction by serotonine; type: cell-based; details: agonist Seratonine 0.10 μ, read-out: Cl-50 of products, Seratonine
Method: as §2, §3

[6] = system: Deferent of Rat (agonist Norepinephrine); test: Test on isolated organ: contraction by norepinephrine; type: cell-based; details: agonist Norepinephrine 1.0 μ, read-out: Cl-50 of products, Norepinephrine
Method: as §2, §3

Acute toxicity in mice = details: mouse, in vivo
Method: The lethal dose 50 (LD-50) of various derivatives administered orally and intra-peritoneally to mice weighing between 20 and 25 g was determined.

Acute toxicity in rats = details: rat, in vivo; Sprague-Dawley rats 150 to 180 g, oral; read-out: LD-50 by the oral route in rats
Method: The acute toxicity was determined by oral means in Sprague-Dawley rats having a body weight of 150 to 180 g. The LD-50 of N-(2-piperidinoethyl)-tertiary-butyl-3'-chlorodiphenylamine hydrochloride by the oral route in rats is above 3500 mg/kg.

[7] = Sub-acute toxicity by oral means with rats; details: rat, in vivo
Method: Three batches of Sprague-Dawley rats each consisting of six males and six females were used. N-(2-piperidinoethyl)-4-tertiary-butyl-3'-chlorodiphenylamine hydrochloride was administered orally to the first two batches in doses of 200 mg/kg and 50 mg/kg respectively. The third batch received a zero dose (distilled water) and was thus used as a control.

[8] = ip, mice 20-25 g, intra-peritoneal, read-out: LD-50 i.p.
[9] = mice 20-25 g, oral, read-out: LD-50 Orally

SMILES	DI-50 with histamine [1] [µmol/kg]	ED50 [2] [µmol/kg]	IC50 [3] [µM]	IC50 [4] [µM]	IC50 [5] [µM]	IC50 [6] [µM]	LD50 (Acute toxicity in mice; ip, read-out: LD-50 i.p.)	LD50 (Acute toxicity in mice; po, read-out: LD-50 Orally)	LD50 (Acute toxicity in rats) [mg/kg]	mortality ([7]; 50 mg/kg) [%]	mortality ([7]; 200 mg/kg) [%]	LD50 (Acute toxicity in mice; [8])	LD50 (Acute toxicity in mice; [9])
CC(C)(C)c1ccc(N(CCN2CCCCC2)c2cccc(Cl)c2)cc1 [Example 1, N-(2-piperidino-ethyl)-4-tertiary butyl-3'-chlorodiphenylamine]	1.0	> 20	2.25	25.5	0.38	24.5	1000 mg/kg and 2450 µmol/kg	> 3500 mg/kg and > 8500 µmol/kg	> 3500	8.33	33	–	–
CCN(CC)CCN(c1ccc(C(C)(C)C)cc1)c1cccc(Cl)c1 [Example 3, N(2-diethylaminoethyl)-4-tert.butyl 3'-chlorodiphenylamine]	6.0	> 20	27.9	25.3	2.6	25	–	–	–	–	–	395 mg/kg and 1000 µmol/kg	> 6000 mg/kg and > 15000 µmol/kg
CC(C)(C)c1ccc(N(CCN2CCCC2)c2cccc(Cl)c2)cc1 [Example 4, N(2-pyrrolidinoethyl)-4-tert.butyl 3'-chlorodiphenylamine]	2.2	20	19.8	25.4	0.05	25.4	–	–	–	–	–	155 mg/kg and 390 µmol/kg	3000 mg/kg and 7620 µmol/kg
